Experimental findings from patent US20260297092A1, “PYRAZOLOPYRIMIDINE DERIVATIVES AS INHIBITORS OF NLRP3” (Takeda Pharmaceutical Company Limited, priority 2023, published 2026) are described below.

Each structure is given as a SMILES string.

Test [1] deals with NLRP3 inflammasome (IL-1β production in THP-1 cells). Briefly: IL-1β TR-FRET Assay (percentage of inhibition at 300 nM, 6 μM or 10 μM). It counts as cell-based, human. To be noted: Homo sapiens, LPS priming, ATP activation; for inhibition at 0.3 µM: THP-1, 300 nM, read-out: IL-1β inhibitory rate at 300 nM (%); for inhibition at 6 µM: THP-1, 6 μM, read-out: IL-1β inhibitory rate at 6 μM (%). The procedure, abridged:
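THP-1 cells were differentiated with 25 ng/mL IFN-γ for 24 h, primed with 50 ng/mL LPS in serum-free medium for 24 h, then given compound for 30 min before 20 mM ATP for 2 h. Supernatant IL-1β was measured by HTRF after 16-24 h at room temperature. Inhibition was normalized between DMSO (high) and 3 μM MCC-950 (low).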
In general terms: Time-resolved FRET reads energy transfer from a long-lived donor to a nearby acceptor.

Test [2] relates to TNF-α (NF-κB pathway, THP-1 cells). Briefly: TNF-α Assay (IC50). Format: cell-based, human. To be noted: Homo sapiens, 600 ng/mL LPS, 3 hours. The procedure, abridged: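 THP-1 cells differentiated to macrophages with 25 ng/mL IFN for 24 h, plated 40,000/well in serum-free medium, preincubated with compounds 30 min at 37 °C, then stimulated with 600 ng/mL LPS for 3 h. Supernatant TNF-α measured by ELISA; IC50 from four-parameter logistic fit, 100% inhibition defined by TPCA-1.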

In the case of `CCOc1nc2nn(-c3c(C)ccc(C)c3O)cc2c(=O)[nH]1` [Example 16, 6-ethoxy-2-(2-hydroxy-3,6-dimethylphenyl)-2,5-dihydro-4H-pyrazolo[3,4-d]pyrimidin-4-one], the inhibition at 0.3 µM in test [1] came to 101%. Besides, in test [2], the half-inhibitory concentration (IC50) was > 30 µM.
Take `Cc1cc(C)c(-n2cc3c(=O)[nH]c(C(F)F)nc3n2)c(O)c1` [Example 94, 6-(difluoromethyl)-2-(2-hydroxy-4,6-dimethylphenyl)-2,5-dihydro-4H-pyrazolo[3,4-d]pyrimidin-4-one]: the inhibition at 0.3 µM in test [1] came to 83%. In addition, the IC50 in test [2] was > 30 µM.
Take `CCOc1nc2nn(-c3c(C)cc(C4(F)CC4)cc3C)cc2c(=O)[nH]1` [Example 245, 6-ethoxy-2-[4-(1-fluorocyclopropyl)-2,6-dimethylphenyl]-2,5-dihydro-4H-pyrazolo[3,4-d]pyrimidin-4-one]: the inhibition at 6 µM in test [1] worked out at 101%. In test [2], the IC50 is > 30 µM.
For `CCOc1nc2nn(-c3c(F)cc(OC)cc3CC(F)(F)F)cc2c(=O)[nH]1` [Example 162, 6-ethoxy-2-[2-fluoro-4-methoxy-6-(2,2,2-trifluoroethyl)phenyl]-2,5-dihydro-4H-pyrazolo[3,4-d]pyrimidin-4-one], the inhibition at 0.3 µM in test [1] was 97%. For the same compound, the IC50 in test [2] is > 30 µM.
For the compound `CCOc1nc2nn(-c3ccc(C)cc3O)c(CC)c2c(=O)[nH]1` [Example 140, 6-ethoxy-3-ethyl-2-(2-hydroxy-4-methylphenyl)-2,5-dihydro-4H-pyrazolo[3,4-d]pyrimidin-4-one], the inhibition at 0.3 µM in test [1] turned out to be 93%. For the same compound, the half-inhibitory concentration (IC50) in test [2] is > 30 µM.
Turning to `CCOc1nc2nn(-c3ccc(C)cc3OC(F)F)cc2c(=O)[nH]1` [Example 83, 2-[2-(difluoromethoxy)-4-methylphenyl]-6-ethoxy-2,5-dihydro-4H-pyrazolo[3,4-d]pyrimidin-4-one], in test [1], the inhibition at 0.3 µM came to 99%. Also, the 50% inhibitory concentration (IC50) in test [2] was > 30 µM.
`CCOc1nc2nn(-c3c(C)ccc(CC)c3O)cc2c(=O)[nH]1` [Example 72, 6-ethoxy-2-(3-ethyl-2-hydroxy-6-methylphenyl)-2,5-dihydro-4H-pyrazolo[3,4-d]pyrimidin-4-one]: the inhibition at 0.3 µM in test [1] turned out to be 94%. Also, the IC50 in test [2] was > 30 µM.
For the compound `CCOc1nc2nn(-c3ccc(C4CC4)cc3F)c(C)c2c(=O)[nH]1` [Example 111, 2-(4-cyclopropyl-2-fluorophenyl)-6-ethoxy-3-methyl-2,5-dihydro-4H-pyrazolo[3,4-d]pyrimidin-4-one], the inhibition at 0.3 µM in test [1] was 95%. Besides, the 50% inhibitory concentration (IC50) in test [2] was > 30 µM.
Consider `Cc1cc(C)c(-n2cc3c(=O)[nH]c(C4CN(C)CCO4)nc3n2)c(O)c1` (stereo not shown) [Example 88, 2-(2-hydroxy-4,6-dimethylphenyl)-6-(4-methylmorpholin-2-yl)-2,5-dihydro-4H-pyrazolo[3,4-d]pyrimidin-4-one], for which the inhibition at 0.3 µM in test [1] came to 86%. In addition, the 50% inhibitory concentration (IC50) in test [2] was > 30 µM.
Turning to `CCOc1nc2nn(-c3c(C)cc(C)cc3O)cc2c(=O)[nH]1` [Example 1, 6-ethoxy-2-(2-hydroxy-4,6-dimethylphenyl)-2,5-dihydro-4H-pyrazolo[3,4-d]pyrimidin-4-one], the inhibition at 0.3 µM in test [1] was found to be 100%. Moreover, in test [2], the half-inhibitory concentration (IC50) was > 30 µM.
For the compound `Cc1cc(C2CC2)cc(C)c1-n1cc2c(=O)[nH]c(CC(F)(F)F)nc2n1` [Example 211, 2-(4-cyclopropyl-2,6-dimethylphenyl)-6-(2,2,2-trifluoroethyl)-2,5-dihydro-4H-pyrazolo[3,4-d]pyrimidin-4-one], in test [1], the inhibition at 0.3 µM worked out at 107%. Moreover, the IC50 in test [2] was > 30 µM.
For the compound `CCOc1nc2nn(-c3c(C)cc(C4CC4)cc3Br)cc2c(=O)[nH]1` [Example 151, 2-(2-bromo-4-cyclopropyl-6-methylphenyl)-6-ethoxy-2,5-dihydro-4H-pyrazolo[3,4-d]pyrimidin-4-one], the inhibition at 0.3 µM in test [1] was 98%. For the same compound, the IC50 in test [2] was > 30 µM.
As to `COc1nc2nn(-c3c(C)cc(C4CC4)cc3OC(F)F)cc2c(=O)[nH]1` [Example 252, 2-[4-cyclopropyl-2-(difluoromethoxy)-6-methylphenyl]-6-methoxy-2,5-dihydro-4H-pyrazolo [3,4-d]pyrimidin-4-one], in test [1], the inhibition at 6 µM came out at 103%. The half-inhibitory concentration (IC50) in test [2] was > 30 µM.
With `CCOc1nc2nn(-c3c(O)cc(C)cc3F)c(C)c2c(=O)[nH]1` [Example 51, 6-ethoxy-2-(2-fluoro-6-hydroxy-4-methylphenyl)-3-methyl-2,5-dihydro-4H-pyrazolo[3,4-d]pyrimidin-4-one], the inhibition at 0.3 µM in test [1] was 100%. For the same compound, the concentration for half-maximal inhibition (IC50) in test [2] is > 30 µM.
Taken in the same sequence, the figures for `CCOc1nc2nn(-c3c(C)cc(OC(F)F)cc3Br)cc2c(=O)[nH]1` [Example 142, 2-[2-bromo-4-(difluoromethoxy)-6-methylphenyl]-6-ethoxy-2,5-dihydro-4H-pyrazolo[3,4-d]pyrimidin-4-one] were 93% and > 30 µM.
For `Cc1cc(C)c(-n2cc3c(=O)[nH]c(C4CCCCO4)nc3n2)c(O)c1` (stereo not shown) [Example 18, 2-(2-hydroxy-4,6-dimethylphenyl)-6-(oxan-2-yl)-2,5-dihydro-4H-pyrazolo[3,4-d]pyrimidin-4-one] the same measures were 99% and > 30 µM.
Consider `CCOc1nc2nn(-c3c(C)cc(C4CC4)cc3F)cc2c(=O)[nH]1` [Example 39, 2-(4-cyclopropyl-2-fluoro-6-methylphenyl)-6-ethoxy-2,5-dihydro-4H-pyrazolo[3,4-d]pyrimidin-4-one], for which the inhibition at 0.3 µM in test [1] turned out to be 100%. Besides, the IC50 in test [2] is > 30 µM.
`COCCOc1nc2nn(-c3c(F)cc(C4CC4)cc3C(F)F)cc2c(=O)[nH]1` [Example 186, 2-[4-cyclopropyl-2-(difluoromethyl)-6-fluorophenyl]-6-(2-methoxyethoxy)-2,5-dihydro-4H-pyrazolo[3,4-d]pyrimidin-4-one]: the inhibition at 0.3 µM in test [1] amounted to 100%. Further, in test [2], the IC50 was > 30 µM.
Turning to `CO[C@@H](C)COc1nc2nn(-c3c(F)cc(C4CC4)cc3C(F)F)cc2c(=O)[nH]1` [Example 203, 2-[4-cyclopropyl-2-(difluoromethyl)-6-fluorophenyl]-6-[(2S)-2-methoxypropoxy]-2,5-dihydro-4H-pyrazolo[3,4-d]pyrimidin-4-one], the inhibition at 0.3 µM in test [1] was 99%. The IC50 in test [2] was > 30 µM.
`CCOc1nc2nn(-c3ccc(CC)cc3O)c(C)c2c(=O)[nH]1` [Example 49, 6-ethoxy-2-(4-ethyl-2-hydroxyphenyl)-3-methyl-2,5-dihydro-4H-pyrazolo[3,4-d]pyrimidin-4-one]: in test [1], the inhibition at 0.3 µM is 98%. For the same compound, the half-inhibitory concentration (IC50) in test [2] is > 30 µM.
On to `CCOc1nc2nn(-c3c(F)cc(C)cc3C3CC3)cc2c(=O)[nH]1` [Example 105, 2-(2-cyclopropyl-6-fluoro-4-methylphenyl)-6-ethoxy-2,5-dihydro-4H-pyrazolo[3,4-d]pyrimidin-4-one], for which the inhibition at 0.3 µM in test [1] was 99%. In addition, the concentration for half-maximal inhibition (IC50) in test [2] was > 30 µM.
As to `CCOc1nc2nn(-c3ccc(C)cc3F)cc2c(=O)[nH]1` [Example 113, 6-ethoxy-2-(2-fluoro-4-methylphenyl)-2,5-dihydro-4H-pyrazolo[3,4-d]pyrimidin-4-one], the inhibition at 0.3 µM in test [1] was determined as 67%. Also, the IC50 in test [2] was > 30 µM.
Consider `Cc1cc(C)c(-n2cc3c(=O)[nH]c(CC(C)(C)C)nc3n2)c(O)c1` [Example 68, 6-(2,2-dimethylpropyl)-2-(2-hydroxy-4,6-dimethylphenyl)-2,5-dihydro-4H-pyrazolo[3,4-d]pyrimidin-4-one], for which the inhibition at 0.3 µM in test [1] came to 97%. Further, in test [2], the IC50 is 0.279 µM.

A word on the IC50: it is the concentration needed to halve the response being measured.
